Patent publication US9096596B2 (Janssen Pharmaceutica NV, priority 2013, dated 2015)

Tests used:
Format in all cases: cell-based
rat P2X7 = rat P2X7 (Rattus norvegicus (Rat), UniProt Q64663); experiment: Ca2+ flux (FLIPR) in 1321N1 cells expressing recombinant rat P2X7 channel; conditions: 250 μM BzATP, Calcium-4 dye
Description: (§1) 1321N1 cells expressing the recombinant human, rat or mouse P2X7 channel was cultured in HyQ DME/(HyClone/Dulbecco's Modified Eagle Medium) high glucose supplemented with 10% Fetal Bovine Serum (FBS) and appropriate selection marker. Cells were seeded at a density of 25000 cells/well (96-well clear bottom black walled plates) in 100 μl volume/well. On the day of the experiment, cell plates were washed with assay buffer, containing (in mM): 130 NaCl, 2 KCl, 1 CaCl2, 1 MgCl2, 10 HEPES, 5 glucose; pH 7.40 and 300 mOs. After the wash, cells were loaded with the Calcium-4 dye (Molecular Device) and incubated in the dark for 60 minutes. Test compounds were prepared at 250× the test concentration in neat DMSO. Intermediate 96-well compound plates were prepared by transferring 1.2 μL of the compound into 300 μL of assay buffer. A further 3× dilution occurred when transferring 50 μL/well of the compound plate to 100 μL/well in the cell plate. Cells were incubated with test compounds and dye for 30 minutes. […] The fluorescence change was measured 180 seconds after adding the agonist.

P2X7 [1] = molecular target: T1, P2X7 (Homo sapiens (Human), UniProt Q99572); experiment: P2X7 antagonism in human PBMCs (IL-1β release, ELISA); conditions: test compound 10 μM, IL-1β release in human PBMCs, LPS 30 ng/ml + Bz-ATP 0.5 mM, read-out: PBMC 10 μM (% control)
Description: Human blood was collected using a blood donor program. […] Cells were incubated for an additional 1.5 hours. […] In Table 2, when the data cell has been left blank, it is intended to mean that the compound was not tested in that assay.

P2X7 [2] = molecular target: T1, P2X7; experiment: Ca2+ flux (FLIPR) in 1321N1 cells expressing recombinant human P2X7 channel; conditions: 250 μM BzATP, Calcium-4 dye
Description: as §1

T1 sequence (Q99572 whole entry): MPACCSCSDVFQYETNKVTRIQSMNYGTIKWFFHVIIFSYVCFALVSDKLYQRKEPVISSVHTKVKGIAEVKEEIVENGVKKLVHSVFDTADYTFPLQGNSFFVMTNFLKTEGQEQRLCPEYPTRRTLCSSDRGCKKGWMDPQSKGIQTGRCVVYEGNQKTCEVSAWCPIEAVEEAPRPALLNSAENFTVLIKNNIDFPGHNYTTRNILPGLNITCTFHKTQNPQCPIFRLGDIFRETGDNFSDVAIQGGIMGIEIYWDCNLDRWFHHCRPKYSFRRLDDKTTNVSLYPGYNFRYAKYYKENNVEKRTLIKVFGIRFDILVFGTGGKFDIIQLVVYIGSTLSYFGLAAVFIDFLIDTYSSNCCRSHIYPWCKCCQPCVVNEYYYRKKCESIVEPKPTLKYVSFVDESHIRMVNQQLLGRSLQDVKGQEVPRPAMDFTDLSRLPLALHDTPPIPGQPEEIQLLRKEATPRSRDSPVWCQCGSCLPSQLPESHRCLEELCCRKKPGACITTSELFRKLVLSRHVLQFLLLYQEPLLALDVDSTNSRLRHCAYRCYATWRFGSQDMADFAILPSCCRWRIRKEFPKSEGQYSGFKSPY
Chain of rat P2X7 (Q64663 whole entry): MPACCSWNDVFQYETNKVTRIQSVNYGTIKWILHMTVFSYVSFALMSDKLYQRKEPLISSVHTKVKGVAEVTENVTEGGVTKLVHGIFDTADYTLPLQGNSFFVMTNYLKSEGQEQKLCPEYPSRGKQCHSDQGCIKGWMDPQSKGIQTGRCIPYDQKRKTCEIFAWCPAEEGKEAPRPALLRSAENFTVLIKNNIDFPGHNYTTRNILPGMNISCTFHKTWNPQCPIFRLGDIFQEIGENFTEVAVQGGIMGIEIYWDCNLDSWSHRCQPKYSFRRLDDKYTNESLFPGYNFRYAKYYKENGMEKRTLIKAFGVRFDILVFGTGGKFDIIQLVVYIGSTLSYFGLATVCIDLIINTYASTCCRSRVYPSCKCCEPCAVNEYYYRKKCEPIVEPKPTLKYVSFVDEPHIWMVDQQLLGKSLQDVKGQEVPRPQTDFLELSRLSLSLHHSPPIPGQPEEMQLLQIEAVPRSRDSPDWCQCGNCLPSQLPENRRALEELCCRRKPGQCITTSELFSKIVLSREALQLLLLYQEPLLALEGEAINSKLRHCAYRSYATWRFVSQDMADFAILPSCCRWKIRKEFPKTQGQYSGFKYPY

| Compound | IC50 (rat P2X7) | remaining activity at 10 µM (P2X7 [1]) | IC50 (P2X7 [2]) |
| --- | --- | --- | --- |
| Cc1nc2c(c(-c3ccn[nH]3)n1)CC(C)N(C(=O)c1cccc(Cl)c1Cl)C2 (centres unmarked) [Example 67, (2,3-dichlorophenyl)(2,6-dimethyl-4-(1H-pyrazol-5-yl)-5,6-dihydropyrido[3,4-d]pyrimidin-7(8H)-yl)methanone] | 0.0145 µM | -1.3% |  |
| O=C(c1cccc(Cl)c1Cl)N1CCc2c(ncnc2-c2cn[nH]c2)C1 [Example 4, 7-[(2,3-Dichlorophenyl)carbonyl]-4-(1H-pyrazol-4-yl)-5,6,7,8-tetrahydropyrido[3,4-d]pyrimidine] | 12.5 µM |  | 0.388 µM |
| Cc1nc2c(c(-c3ccn[nH]3)n1)C[C@H](C)N(C(=O)c1cccc(C(F)(F)F)c1C)C2 (single isomer, unassigned) [Example 79, (S*)-(2,6-dimethyl-4-(1H-pyrazol-5-yl)-5,6-dihydropyrido[3,4-d]pyrimidin-7(8H)-yl)(2-methyl-3-(trifluoromethyl)phenyl)methanone] |  |  | 3.24 µM |
| COCCn1ccc(-c2nc(C)nc3c2C[C@H](C)N(C(=O)c2cccc(C(F)(F)F)c2Cl)C3)n1 (single isomer, unassigned) [Example 127, (S*)-(2-chloro-3-(trifluoromethyl)phenyl)(4-(1-(2-methoxyethyl)-1H-pyrazol-3-yl)-2,6-dimethyl-5,6-dihydropyrido[3,4-d]pyrimidin-7(8H)-yl)methanone] | > 10 µM |  | > 10 µM |
| CCc1nc2c(c(-c3ccn[nH]3)n1)CC(C)N(C(=O)c1cccc(C(F)(F)F)c1Cl)C2 (centres unmarked) [Example 98, (2-chloro-3-(trifluoromethyl)phenyl)(2-ethyl-6-methyl-4-(1H-pyrazol-5-yl)-5,6-dihydropyrido[3,4-d]pyrimidin-7(8H)-yl)methanone] |  | 13.2% |  |
| CC(C)c1nc2c(c(-c3ccn[nH]3)n1)CC(C)N(C(=O)c1cccc(C(F)(F)F)c1Cl)C2 (centres unmarked) [Example 101, (2-chloro-3-(trifluoromethyl)phenyl)(2-isopropyl-6-methyl-4-(1H-pyrazol-5-yl)-5,6-dihydropyrido[3,4-d]pyrimidin-7(8H)-yl)methanone] |  | 13.6% |  |
| Cc1nc2c(c(-c3ccn[nH]3)n1)CC(C)N(C(=O)c1ccc(F)c(C(F)(F)F)c1Cl)C2 (centres unmarked) [Example 64, (2-chloro-4-fluoro-3-(trifluoromethyl)phenyl)(2,6-dimethyl-4-(1H-pyrazol-5-yl)-5,6-dihydropyrido[3,4-d]pyrimidin-7(8H)-yl)methanone] |  | -2.1% |  |
| Nc1nc2c(c(-c3ccn[nH]3)n1)CCN(C(=O)c1cccc(C(F)(F)F)c1Cl)C2 [Example 55, 7-{[2-Chloro-3-(trifluoromethyl)phenyl]carbonyl}-4-(1H-pyrazol-5-yl)-5,6,7,8-tetrahydropyrido[3,4-d]pyrimidin-2-amine] | 0.117 µM | -2.1% |  |
| Cc1cccc(C(=O)N2CCc3c(ncnc3-c3ccn[nH]3)C2)c1C [Example 9, 7-[(2,3-Dimethylphenyl)carbonyl]-4-(1H-pyrazol-5-yl)-5,6,7,8-tetrahydropyrido[3,4-d]pyrimidine] |  | 9.8% |  |
| Cc1nc2c(c(-c3c(C)noc3C)n1)CCN(C(=O)c1cccc(C(F)(F)F)c1Cl)C2 [Example 46, 7-{[2-Chloro-3-(trifluoromethyl)phenyl]carbonyl}-4-(3,5-dimethylisoxazol-4-yl)-2-methyl-5,6,7,8-tetrahydropyrido[3,4-d]pyrimidine] |  | 100% |  |
| Cc1nc2c(c(-c3ccn[nH]3)n1)CC(C)N(C(=O)c1cccc(C(F)(F)F)c1Cl)C2 (centres unmarked) [Example 56, 7-{[2-Chloro-3-(trifluoromethyl)phenyl]carbonyl}-2,6-dimethyl-4-(1H-pyrazol-5-yl)-5,6,7,8-tetrahydropyrido[3,4-d]pyrimidine] |  | 10.2% |  |
| Cc1nc2c(c(-c3ccc(F)cc3)n1)CCN(C(=O)c1cccc(Cl)c1Cl)C2 [Example 28, 7-[(2,3-Dichlorophenyl)carbonyl]-4-(4-fluorophenyl)-2-methyl-5,6,7,8-tetrahydropyrido[3,4-d]pyrimidine] | 8.57 µM | 12.4% |  |
| CC1c2ncnc(-c3ccn[nH]3)c2CCN1C(=O)c1cccc(C(F)(F)F)c1Cl (centres unmarked) [Example 112, (2-chloro-3-(trifluoromethyl)phenyl)(8-methyl-4-(1H-pyrazol-5-yl)-5,6-dihydropyrido[3,4-d]pyrimidin-7(8H)-yl)methanone] | 0.016 µM | -1.8% |  |

Results, then the compound that gave them:

| IC50 (rat P2X7) | remaining activity at 10 µM (P2X7 [1]) | IC50 (P2X7 [2]) | Compound |
| --- | --- | --- | --- |
| 0.0237 µM | -1.3% |  | CCc1nc2c(c(-c3ccn[nH]3)n1)CC(C)N(C(=O)c1ccc(Cl)c(F)c1Cl)C2 (centres unmarked) [Example 104, (2,4-dichloro-3-fluorophenyl)(2-ethyl-6-methyl-4-(1H-pyrazol-5-yl)-5,6-dihydropyrido[3,4-d]pyrimidin-7(8H)-yl)methanone] |
| > 10 µM |  | > 10 µM | Cc1nc2c(c(-c3ccn[nH]3)n1)C[C@@H](C)N(C(=O)c1ccc(F)cc1F)C2 (single isomer, unassigned) [Example 94, (R*)-(2,4-difluorophenyl)(2,6-dimethyl-4-(1H-pyrazol-5-yl)-5,6-dihydropyrido[3,4-d]pyrimidin-7(8H)-yl)methanone] |
|  |  | 0.796 µM | Nc1nc2c(c(-c3ccccc3)n1)CCN(C(=O)c1cccc(Cl)c1Cl)C2 [Example 29, 7-[(2,3-Dichlorophenyl)carbonyl]-4-phenyl-5,6,7,8-tetrahydropyrido[3,4-d]pyrimidin-2-amine] |
|  |  | 11 µM | Cc1nc2c(c(-c3ccn[nH]3)n1)C[C@@H](C)N(C(=O)c1ccc(Cl)cc1F)C2 (single isomer, unassigned) [Example 88, (R*)-(4-chloro-2-fluorophenyl)(2,6-dimethyl-4-(1H-pyrazol-5-yl)-5,6-dihydropyrido[3,4-d]pyrimidin-7(8H)-yl)methanone] |
|  |  | 0.265 µM | Cc1nc2c(c(-c3ccccc3)n1)CCN(C(=O)c1cccc(C(F)(F)F)c1Cl)C2 [Example 32, 7-{[2-Chloro-3-(trifluoromethyl)phenyl]carbonyl}-2-methyl-4-phenyl-5,6,7,8-tetrahydropyrido[3,4-d]pyrimidine] |
|  | 18.4% |  | Cc1nc2c(c(-c3ccn[nH]3)n1)CC(C)N(C(=O)c1ccc(F)c(Cl)c1Cl)C2 (centres unmarked) [Example 80, (2,3-dichloro-4-fluorophenyl)(2,6-dimethyl-4-(1H-pyrazol-5-yl)-5,6-dihydropyrido[3,4-d]pyrimidin-7(8H)-yl)methanone] |
| 0.0178 µM | 2.2% |  | Cc1nc2c(c(-c3ccnn3C)n1)CC(C)N(C(=O)c1cccc(C(F)(F)F)c1Cl)C2 (centres unmarked) [Example 73, (2-chloro-3-(trifluoromethyl)phenyl)(2,6-dimethyl-4-(1-methyl-1H-pyrazol-5-yl)-5,6-dihydropyrido[3,4-d]pyrimidin-7(8H)-yl)methanone] |
| 0.021 µM | -0.6% |  | CC1c2ncnc(-c3ccn[nH]3)c2CCN1C(=O)c1ccc(F)c(Cl)c1Cl (centres unmarked) [Example 118, (2,3-dichloro-4-fluorophenyl)(8-methyl-4-(1H-pyrazol-5-yl)-5,6-dihydropyrido[3,4-d]pyrimidin-7(8H)-yl)methanone] |
|  | 9.3% |  | Cc1nc2c(c(-c3ccn[nH]3)n1)CCN(C(=O)c1cccc(C(F)(F)F)c1C)C2 [Example 52, 2-Methyl-7-{[2-methyl-3-(trifluoromethyl)phenyl]carbonyl}-4-(1H-pyrazol-5-yl)-5,6,7,8-tetrahydropyrido[3,4-d]pyrimidine] |
